Reference: article PMC6810216, “Human-to-Human Transmission of Influenza A(H3N2) Virus with Reduced Susceptibility to Baloxavir, Japan, February 2019” (Emerging Infectious Diseases, 2019)
pIC50: −log10 of the molar value.

Columns and labels:
[1] = test system: mutant influenza A(H3N2) viruses encoding the polymerase acidic I38T substitution; conditions: human, in vivo
[2] = test system: A/Kanagawa/IC18141/2019, influenza A(H3N2) virus carrying polymerase acidic I38T substitution; format: cell-based
[3] = molecular target: neuraminidase (NA) of A/Kanagawa/IC18141/2019 (Influenza A virus (H3N2), UniProt A0A193ACB1); format: biochemical

| SMILES | time to fever resolution after administration [1] | pIC50 [2] | fold higher IC50 value compared with the median IC50 of A(H3N2) viruses of the 2018–19 season [2] [fold] | pIC50 [3] | NA inhibitor susceptibility by WHO criteria (fold change in IC50 vs median of same-season isolates) [3] |
| --- | --- | --- | --- | --- | --- |
| O=C1c2c(O)c(=O)ccn2N([C@@H]2c3ccccc3SCc3c2ccc(F)c3F)[C@@H]2COCCN12 [Baloxavir, baloxavir acid] | within a half day | 6.63 | 186 |  |  |
| CCC(CC)[C@H](NC(C)=O)[C@@H]1[C@H](O)[C@@H](C(=O)O)C[C@H]1N=C(N)N [Peramivir, peramivir] |  |  |  | 9.74 | 0.18 (NI) (key: NI: normal (<10-fold increase); reduced (10–100-fold increase); highly reduced (>100-fold increase)) |
